“And” between values parts separate entries of the source, which are not always exact repeats. Equal entries are not always repeated. Inconclusive results and toxic doses are left out.
Tested on: BDF1 mice, P388 leukemia ip, median survival T/C
Assay: NCI In Vivo Anticancer Drug Screen. Data for tumor model P388 Leukemia (intraperitoneal) in B6D2F1 (BDF1) mice
Settings: endpoint: median survival time, higher = longer survival
Outline: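 Survival ratio, drug arm over vehicle arm, in mice with a transplanted tumour.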

[1] = dose: 40.0 mg/kg/injection, schedule: Q01DX010 (ip), vehicle: saline
[2] = dose: 50.0 mg/kg/injection, schedule: Q01DX009 (ip), vehicle: saline with Tween-80
[3] = dose: 100.0 mg/kg/injection, schedule: Q01DX009 (ip), vehicle: saline with Tween-80
[4] = dose: 200.0 mg/kg/injection, schedule: Q01DX009 (ip), vehicle: saline with Tween-80
[5] = dose: 25.0 mg/kg/injection, schedule: Q01DX009 (ip), vehicle: Klucel (hydroxypropylcellulose) (HPC)
[6] = dose: 50.0 mg/kg/injection, schedule: Q01DX009 (ip), vehicle: Klucel (hydroxypropylcellulose) (HPC)
[7] = dose: 100.0 mg/kg/injection, schedule: Q01DX009 (ip), vehicle: Klucel (hydroxypropylcellulose) (HPC)
[8] = dose: 200.0 mg/kg/injection, schedule: Q01DX009 (ip), vehicle: Klucel (hydroxypropylcellulose) (HPC)
[9] = dose: 100.0 mg/kg/injection, schedule: Q04DX003 (ip), vehicle: Klucel (hydroxypropylcellulose) (HPC)
[10] = dose: 200.0 mg/kg/injection, schedule: Q04DX003 (ip), vehicle: Klucel (hydroxypropylcellulose) (HPC)
[11] = dose: 25.0 mg/kg/injection, schedule: Q04DX003 (ip), vehicle: saline with Tween-80
[12] = dose: 50.0 mg/kg/injection, schedule: Q04DX003 (ip), vehicle: saline with Tween-80
[13] = dose: 100.0 mg/kg/injection, schedule: Q04DX003 (ip), vehicle: saline with Tween-80
[14] = dose: 200.0 mg/kg/injection, schedule: Q04DX003 (ip), vehicle: saline with Tween-80

SMILES: C=C(CCC(C(=O)O)C1CCC2(C)C3=C(CCC12C)C1(C)CCC(O)C(C)(C)C1CC3)C(C)C (stereo not drawn)
- T/C (dose: 12.5 mg/kg/injection, schedule: Q01DX009 (sc), vehicle: steriod suspending solution): 100 % of control
- T/C (dose: 25.0 mg/kg/injection, schedule: Q01DX009 (sc), vehicle: steriod suspending solution): 99 % of control
- T/C (dose: 50.0 mg/kg/injection, schedule: Q01DX009 (ip), vehicle: steriod suspending solution): 87 % of control
- T/C (dose: 50.0 mg/kg/injection, schedule: Q01DX009 (sc), vehicle: steriod suspending solution): 98 % of control
- T/C (dose: 100.0 mg/kg/injection, schedule: Q01DX009 (ip), vehicle: steriod suspending solution): 92 % of control
- T/C (dose: 100.0 mg/kg/injection, schedule: Q01DX009 (sc), vehicle: steriod suspending solution): 101 % of control and 106 % of control
- T/C (dose: 200.0 mg/kg/injection, schedule: Q01DX009 (sc), vehicle: steriod suspending solution): 91 % of control

SMILES: COc1ccc(-c2oc3cc(O)cc(O)c3c(=O)c2OC)cc1O
- T/C (dose: 10.0 mg/kg/injection, schedule: Q01DX010 (ip), vehicle: saline): 100 % of control
- T/C (dose: 20.0 mg/kg/injection, schedule: Q01DX010 (ip), vehicle: saline): 100 % of control
- T/C [1]: 109 % of control

SMILES: COc1ccc(/C=C2\NC(=O)NC2=O)cc1O
- T/C [2]: 106 % of control
- T/C [3]: 101 % of control
- T/C [4]: 105 % of control

SMILES: CC(C)(C#N)N=NC(C)(C)C#N
- T/C (dose: 12.5 mg/kg/injection, schedule: Q01DX009 (ip), vehicle: Klucel (hydroxypropylcellulose) (HPC)): 95 % of control
- T/C [5]: 90 % of control
- T/C [6]: 90 % of control

SMILES: CN(C)C1C(=O)C(C(N)=O)=C(O)C2(O)C(=O)C3=C(O)c4c(O)cccc4C(C)(O)C3CC12.O.O.O.[Al] (stereo not drawn)
- T/C [7]: 101 % of control
- T/C [8]: 92 % of control
- T/C (dose: 400.0 mg/kg/injection, schedule: Q01DX009 (ip), vehicle: Klucel (hydroxypropylcellulose) (HPC)): 121 % of control

SMILES: COC(=O)c1cc(=O)n(-c2cccc(F)c2)c(SC)n1
- T/C [9]: 114 % of control
- T/C [10]: 114 % of control

SMILES: Nc1cc[c]([Hg][Cl])cc1
- T/C (dose: 1.5 mg/kg/injection, schedule: Q01DX001 (ip), vehicle: Klucel (hydroxypropylcellulose) (HPC)): 110 % of control
- T/C (dose: 3.0 mg/kg/injection, schedule: Q01DX001 (ip), vehicle: Klucel (hydroxypropylcellulose) (HPC)): 115 % of control
- T/C (dose: 6.0 mg/kg/injection, schedule: Q01DX001 (ip), vehicle: Klucel (hydroxypropylcellulose) (HPC)): 100 % of control and 104 % of control

SMILES: C/C=C/C[P+](C)(c1ccccc1)c1ccccc1
- T/C (dose: 0.2 mg/kg/injection, schedule: Q01DX009 (ip), vehicle: saline): 104 % of control
- T/C (dose: 0.4 mg/kg/injection, schedule: Q01DX009 (ip), vehicle: saline): 103 % of control
- T/C (dose: 0.8 mg/kg/injection, schedule: Q01DX009 (ip), vehicle: saline): 104 % of control

SMILES: CC1NCCNCCNCCNC(C)c2cccc1n2 (stereo not drawn)
- T/C (dose: 6.25 mg/kg/injection, schedule: Q01DX009 (ip), vehicle: saline): 118 % of control
- T/C (dose: 12.5 mg/kg/injection, schedule: Q01DX009 (ip), vehicle: saline): 106 % of control
- T/C (dose: 25.0 mg/kg/injection, schedule: Q01DX009 (ip), vehicle: saline): 118 % of control

SMILES: CC(NCCCSc1ccccc1)C(O)c1ccc(O)cc1 (stereo not drawn)
- T/C [2]: 99 % of control and 100 % of control and 105 % of control
- T/C [3]: 110 % of control and 114 % of control and 119 % of control

SMILES: CC(=N\O)/C(C)=N/O.CC(=N\O)/C(C)=N/O.O=C(O)C1CC[N-]CC1.O=C(O)C1CC[N-]CC1.O=C(O)C1CC[N-]CC1.O=C(O)C1CC[N-]CC1.[Cl-].[Cl-].[Cl][Rh][Cl].[Rh+3]
- T/C (dose: 25.0 mg/kg/injection, schedule: Q01DX009 (ip), vehicle: water): 100 % of control
- T/C (dose: 50.0 mg/kg/injection, schedule: Q01DX009 (ip), vehicle: water): 94 % of control
- T/C (dose: 200.0 mg/kg/injection, schedule: Q01DX009 (ip), vehicle: water): 94 % of control
- T/C (dose: 400.0 mg/kg/injection, schedule: Q01DX009 (ip), vehicle: water): 88 % of control

SMILES: COc1cc2c3c(c1O)Oc1ccc(cc1)C[C@@H]1c4c(cc(OC)c(O)c4Oc4ccc(cc4)C[C@H]3N(C)CC2)CCN1C
- T/C [1]: 95 % of control
- T/C (dose: 80.0 mg/kg/injection, schedule: Q01DX010 (ip), vehicle: saline): 100 % of control
- T/C (dose: 160.0 mg/kg/injection, schedule: Q01DX010 (ip), vehicle: saline): 105 % of control
- T/C (dose: 320.0 mg/kg/injection, schedule: Q01DX010 (ip), vehicle: saline): 90 % of control

SMILES: OCC1(O)CC(O)C(O)(CO)CC1O (stereo not drawn)
- T/C (dose: 50.0 mg/kg/injection, schedule: Q01DX009 (ip), vehicle: other): 104 % of control
- T/C (dose: 50.0 mg/kg/injection, schedule: Q04DX003 (ip), vehicle: saline): 104 % of control
- T/C (dose: 100.0 mg/kg/injection, schedule: Q01DX009 (ip), vehicle: other): 95 % of control
- T/C (dose: 100.0 mg/kg/injection, schedule: Q04DX003 (ip), vehicle: saline): 116 % of control
- T/C (dose: 200.0 mg/kg/injection, schedule: Q01DX009 (ip), vehicle: other): 118 % of control
- T/C (dose: 200.0 mg/kg/injection, schedule: Q04DX003 (ip), vehicle: saline): 95 % of control

SMILES: COc1cccc2c1C(=O)c1c(O)c3c(c(O)c1C2=O)C[C@@](O)(C(C)=O)C[C@@H]3OC1CC(N(C)C)C(O)C(C)O1 (stereo partly drawn)
- T/C (dose: 3.46 mg/kg/injection, schedule: Q04DX003 (ip), vehicle: water): 161 % of control
- T/C (dose: 5.76 mg/kg/injection, schedule: Q04DX003 (ip), vehicle: water): 167 % of control
- T/C (dose: 9.6 mg/kg/injection, schedule: Q04DX003 (ip), vehicle: water): 184 % of control
- T/C (dose: 16.0 mg/kg/injection, schedule: Q04DX003 (ip), vehicle: water): 110 % of control

SMILES: CC[n+]1ccc(Nc2ccc(/C=C/c3ccc4cc(Nc5cc[n+](CC)cc5)ccc4[n+]3CC)cc2)cc1
- T/C (dose: 2.5 mg/kg/injection, schedule: Q01DX009 (ip), vehicle: saline): 158 % of control and 161 % of control
- T/C (dose: 3.13 mg/kg/injection, schedule: Q01DX009 (oral), vehicle: saline): 86 % of control
- T/C (dose: 5.0 mg/kg/injection, schedule: Q01DX009 (ip), vehicle: saline): 177 % of control and 187 % of control
- T/C (dose: 6.25 mg/kg/injection, schedule: Q01DX009 (oral), vehicle: saline): 93 % of control
- T/C (dose: 10.0 mg/kg/injection, schedule: Q01DX009 (ip), vehicle: saline): 229 % of control and 239 % of control
- T/C (dose: 12.5 mg/kg/injection, schedule: Q01DX009 (oral), vehicle: saline): 86 % of control
- T/C (dose: 25.0 mg/kg/injection, schedule: Q01DX009 (oral), vehicle: saline): 86 % of control

SMILES: COc1ccc(CNc2ncccn2)cc1
- T/C [5]: 95 % of control
- T/C [6]: 100 % of control
- T/C [7]: 104 % of control
- T/C [9]: 88 % of control
- T/C [8]: 89 % of control
- T/C [10]: 96 % of control

SMILES: O=C(O)CCNSc1ccccc1[N+](=O)[O-]
- T/C [2]: 106 % of control
- T/C [3]: 106 % of control

SMILES: C1=C(c2ccccc2)OC(c2ccccc2)C1c1ccccc1 (stereo not drawn)
- T/C (dose: 25.0 mg/kg/injection, schedule: Q01DX005 (ip), vehicle: saline with Tween-80): 94 % of control
- T/C (dose: 50.0 mg/kg/injection, schedule: Q01DX005 (ip), vehicle: saline with Tween-80): 94 % of control

SMILES: O=C(Nc1cccc2ccccc12)C(F)(F)F
- T/C (dose: 12.5 mg/kg/injection, schedule: Q01DX009 (ip), vehicle: saline with Tween-80): 109 % of control
- T/C (dose: 25.0 mg/kg/injection, schedule: Q01DX009 (ip), vehicle: saline with Tween-80): 104 % of control
- T/C [11]: 91 % of control
- T/C [2]: 100 % of control
- T/C [12]: 99 % of control
- T/C [3]: 118 % of control
- T/C [13]: 90 % of control and 103 % of control

SMILES: CC(=O)Nc1cc2c(cc1[N+](=O)[O-])-c1ccccc1C2O (stereo not drawn)
- T/C [3]: 100 % of control
- T/C [13]: 100 % of control
- T/C [4]: 90 % of control
- T/C [14]: 104 % of control
- T/C (dose: 400.0 mg/kg/injection, schedule: Q04DX003 (ip), vehicle: saline with Tween-80): 104 % of control

SMILES: COc1cc[n+]([O-])cc1/C=C/c1c[n+]([O-])ccc1OC
- T/C [11]: 94 % of control
- T/C [12]: 119 % of control
- T/C [13]: 103 % of control
- T/C [14]: 108 % of control
